{"source": "patent US8735443B2", "about": "“Method of treating diabetes-related vascular complications” (Kuwait University, priority 2008, dated 2014)", "key": {"[1]": {"tested_on": "diabetic fibroblasts", "assay": "Inflammatory cytokine release by fibroblasts, ELISA", "type": "cell-based, rat", "details": "lipoic acid 500 μM, Nrf2-dependent", "source_text": "To determine the effect of α-lipoic acid on isolated cells from normal and diabetic rats, primary rat fibroblasts were derived from dorsal skin biopsies performed on four diabetic Coto Kakizaki rats (DFs) and four age-matched (12-14 months) and sex-matched (female) Wistar control rats (CFs). After sterilization in povidine solution, the rat skin was washed in sterile water and rinsed in 70% ethanol in phosphate-buffered saline (PBS). The epidermis and dermis were separated following overnight incubation in 0.25% Trypsin/EDTA at 4° C. Samples were washed, diced and digested for thirty minutes at 37° C. in collagenase type I (250 U/ml) dissolved in Dulbecco's modified Eagle medium (DMEM; Invitrogen) containing penicillin (100 U/ml), 2 mM L-glutamine and 26 mM HEPES. After collagenase treatment, the cells were dislodged, centrifuged and resuspended in medium supplemented with 10% fetal bovine serum. […]\nWith regard to ELISA assays to determine cytokine expression levels, control and diabetic fibroblasts were seeded on a 6-well plate at 2.5×10^5 cells/well. […] After incubation for 16 hr, supernatants were collected and analyzed for key inflammatory cytokines, including TNF-α, IL-1β, fractalkine and monocyte chemoattractant protein-1 (MCP-1) using commercially available ELISA kits specific for rats and according to the protocols provided by the manufacturers (R&D and Ray Biotech). […]"}, "[2]": {"tested_on": "NF-κB", "assay": "Aortic nuclear NF-κB, western blotting", "type": "in vivo, rat", "details": "GK rats, LA chronic therapy", "description": "(§1) For detection of caspase 3-like activity, protein was isolated and caspase activity was detected in resulting supernatant using an APO-ONE homogenous caspase 3/7 assay (Promega). With regard to subcellular fractionation and western blotting, aortic tissue nuclear extracts were prepared and protein (40 μg) was loaded in each well of […] polyacrylamide gel. Separated polypeptide was transferred to nitrocellulose membrane IBio-Rad) and probed with anti NFκB at a 1:2,000 […]. Chemiluminescent detection was performed by an ECL Western Blotting Detection Kit®.\nIt is well known that TNF-α enhances the activity of NF-κB, most probably via H202 mediated mechanisms. Using data showing that both TNF-α and H202 levels were elevated in diabetic vascular tissues, NF-κB activity was assessed using a western blotting-based technique with an antibody (anti P65) that specifically recognizes the active form of this transcription factor. […] Nuclear localization of NF-κB in aortic tissues was determined using differential centrifugation and western blotting-based techniques."}, "[3]": {"tested_on": "protein-bound carbonyls", "assay": "Aortic content of protein-bound carbonyls", "details": "aorta of LA-treated GK rats"}, "[4]": {"tested_on": "HEK-499 cells", "assay": "Viability of cells exposed to cisplatin", "type": "cell-based", "details": "500 microMolar α-lipoic acid in the media prior to cisplatin at variable doses", "source_text": "Alpha-lipoic acid increased HEK-499 cells, which were engineered to be resistant to chemotherapies and radiotherapies by depleting Raf Kinase inhibitory protein resistance to lethal doses of cisplatin, a chemical used in cancer therapy."}, "[5]": {"tested_on": "thiobarbituric acid reactive substances", "assay": "Aortic content of TBARS (lipid peroxidation)", "type": "in vivo, rat", "details": "aorta of LA-treated GK rats", "description": "With regard to lipid peroxidation, aortic tissues were homogenized in ice-cold tris-hydrochloric acid/buffer (pH 7.4) and butylated hydroxytoluene (BHT). Homogenates were centrifuged at 3,000×g at 4° C. for 10 min. An aliquot of the supernatant was combined with N-methyl-2-phenylindol (10.3) mmol/l in acetonitrile and methanol in the presence of methane sulfonic acid and BHT and the amount of malondialdehyde and 4-hydroxy-2-nonenal was assessed."}, "[6]": {"tested_on": "TNF-α", "assay": "Aortic mRNA expression by QRT-PCR, TNF-α", "type": "in vivo, rat", "details": "GK rats, LA chronic therapy", "description": "(§2) Further, with regard to quantitative real-time polymerase chain reactions (PCR) in the study, total RNA from the arterial samples was isolated using TRIZOL® reagent, and RNA integrity was verified by agarose gel electrophoresis and quantified by spectrophotometry. Reverse transcription reaction of total RNA (5 μg) was performed using a superscript 111 first-strand synthesis system. Quantitative real-time PCR was performed using fast SYBR Green QPCR. […]\n(§3) The housekeeping gene beta-actin was used for internal normalization. Fidelity of the PCR reaction was determined by melting temperature analysis. PCR efficiency for each primer pair was determined by quantitating amplification with increasing concentration of template cDNA. […] RNA expression of target genes was calculated based on the real-time PCR efficiency E and the threshold crossing point (CP) and is expressed relative to the reference gene beta-actin."}, "[7]": {"tested_on": "gp 91^phox", "assay": "Aortic mRNA expression by real-time PCR, gp 91phox", "type": "in vivo, rat", "details": "aorta of LA-treated GK rats", "description": "as §2, §3"}, "[8]": {"tested_on": "caspase 3/7", "assay": "Caspase 3/7 activity in aorta (APO-ONE assay)", "type": "in vivo, rat", "details": "chronic LA treatment, GK rats", "description": "as §1"}}}
{"smiles": "O=C(O)CCCCC1CCSS1", "note": "(stereo not drawn) [LA, alpha-lipoic acid]", "values": [{"measurement": "release of inflammatory cytokines by diabetic fibroblasts", "setting": "[1]", "value": "ameliorated"}, {"measurement": "high NF-κB level in vascular diabetic nuclei", "setting": "[2]", "value": "reversed"}, {"measurement": "oxidative stress-mediated damage to protein (protein-bound carbonyls)", "setting": "[3]", "value": "partially reversed"}, {"measurement": "protection of cells from lethal doses of cisplatin", "setting": "[4]", "value": "significantly protected"}, {"measurement": "oxidative stress-mediated damage to lipid (TBARS)", "setting": "[5]", "value": "partially reversed"}, {"measurement": "diabetes related up-regulation of TNF-α mRNA (aorta)", "setting": "[6]", "value": "Reversal"}, {"measurement": "rate of gene expression of pg 91^phox subunit", "setting": "[7]", "value": "tended to reduce"}, {"measurement": "reduction of caspase 3/7 in diabetic arteries", "setting": "[8]", "value": 48, "unit": "%"}]}
